Values after ≈ are worked out from the molar mass of the structure shown.
Columns and labels:
[1] = system: RD cells; experiment: Cytotoxicity assay (CCK-8); format: cell-based; details: 24 h, 2-fold dilutions from 1 mg/mL, CCK-8, absorbance 450 nm, mean ± SD, at least two independent experiments
Experimental: RD cells at a density of 4 × 10^4/100 µL/well were seeded in 96-well plates 24 h prior to the cytotoxicity assay. The peptide P25 and its derivatives were reconstituted in DMSO to a concentration of 25 mg/mL and then diluted to 1 mg/mL in DMEM with 100 mM HEPES, from which 2-fold serial dilutions of the peptides were produced, starting with the same medium. DMSO diluted in the same medium served as the control. Fifty microliters of diluted peptides and the control medium were added to the cells and cultured for 24 h. After cultivation, 5 µL of the enhanced CCK-8 reagent (Beyotime, C0043, Shanghai, China) were added directly to each well of the cell culture and cultured for an additional hour. Absorbance at 450 nm was detected using a TECAN Infinite 200 PRO instrument. The cell viability was normalized to the control, and the concentration at which a peptide inhibited 50% of the cell viability (CC50) was calculated using GraphPad Prism 9.5.1 (GraphPad software, San Diego, CA, USA).

[2] = system: EV-A71/FY0805
[3] = system: EV-A71/SZK2021; details: co-treatment, RD cells, 100 TCID50/50 µL, 24 h, crystal violet; mean ± SD, at least two independent experiments; NO = no inhibition observed
[4] = system: Echo 30/WZ16; details: co-treatment, RD cells, 100 TCID50/50 µL, 24 h, crystal violet; mean ± SD, at least two independent experiments; >125 = protection less than 50% at 125 µg/mL; NO = no inhibition observed
[5] = system: Poliovirus 3/nOPV3; details: 24 h
[6] = system: EV-D68/BCH895A; details: co-treatment, RD cells, 100 TCID50/50 µL, 24 h, crystal violet; mean ± SD, at least two independent experiments; >125 = protection less than 50% at 125 µg/mL; NO = no inhibition observed

**Q.** With `CC[C@H](C)[C@H](NC(=O)[C@H](Cc1c[nH]cn1)NC(=O)[C@H](CCCCN)NC(=O)[C@@H]1CCCN1C(=O)[C@H](CCCCN)NC(=O)[C@H](CCSC)NC(=O)[C@H](Cc1ccc(O)cc1)NC(=O)[C@@H](NC(=O)[C@H](CCCNC(=N)N)NC(=O)[C@@H](NC(=O)[C@@H](NC(=O)[C@@H](NC(=O)[C@@H](NC(=O)[C@H](Cc1ccccc1)NC(=O)CN)[C@@H](C)O)C(C)C)[C@@H](C)O)C(C)C)C(C)C)C(=O)N[C@@H](CCCCN)C(=O)N[C@@H](C)C(=O)N[C@@H](Cc1c[nH]c2ccccc12)C(=O)N[C@@H](C)C(=O)O` [Peptide P25] as the compound, how does the CC50 [1] read?
**A.** Its CC50 is 256.43 ± 7.15 mg/L (≈ 115 µM).

**Q.** What about the “IC50 of P25 at 6 h of pre-treatment” value ([2]; 6 h) of the same compound?
**A.** The value was 3.9 mg/L.

**Q.** What about the “IC50 (µg/mL) EV-A71 /FY0805” value ([2]; 24 h) of the same compound?
**A.** Its value is 32.35 ± 7.23 µg/mL (≈ 14.5 µM).

**Q.** And the “IC50 (µg/mL) EV-A71 /SZK2021” value [3]?
**A.** Its value is 41.32 ± 8.46 µg/mL.

**Q.** What about the “IC50 (µg/mL) Echo 30 /WZ16” value [4] of the same compound?
**A.** Its value is over 125 µg/mL.

**Q.** And the “IC50 (µg/mL) Poliovirus 3 /nOPV3” value [5]?
**A.** Its value is over 125 µg/mL.

**Q.** And the “IC50 (µg/mL) EV-D68 /BCH895A” value [6]?
**A.** Its value is 57.56 ± 5.81 µg/mL.

From publication PMC11506774 (Biomolecules, 2024)
